Among the data in US5639884A, “Arylidene-heterocyclic derivatives and process for their preparation” (Farmitalia Carlo Erba S.r.l., priority 1991, dated 1997) are IC50 values, retold here.

This test addresses p45 v-abl tyrosine kinase. Description: Exogenous Substrate Kinase Assay: p45 v-abl kinase inhibition. It counts as biochemical, Abelson murine leukemia virus. The conditions noted are these: (Val^5)-Angiotensin II phosphorylation; 40 ng abl-kinase; peptide 2 mM, ATP 50 μM; pH 8.0, 30° C.; triplicate determinations. An excerpt:
Tyrosine kinase purification. The enzyme used in our test was the p45 v-abl tyrosine kinase which represents the catalytic domaine of the Abelson tyrosine kinase (isolated from the Abelson murine leukemia virus). The p45 v-abl kinase was produced and isolated as described by Wang et al. in J. Biol. Chem. 260, 64 (1985) and by Ferguson et al. in J. Biol. Chem. 260, 3652 (1985) and in Biochem. J. 257, 321 (1989).
Exogenous Substrate Kinase Assay. (Val^5)-Angiotensin II phosphorylation was performed by incubation with 40 ng of purified abl-kinase and (γ-^32 P)-ATP, in 50 μl of buffer containing Tris-HCl 25 mM, pH 8.0, MgCl2 10 mM and dithiothreitol 0.1 mM (kinase buffer). The reaction mixture was incubated for the indicated time at 30° C. and the reaction stopped by adding 50 μl of 5% trichloroacetic acid. After a brief incubation on ice, tubes were centrifuged. The supernatants were spotted on phosphocellulose paper squares (Whatman P-81) and washed extensively in acetic acid. The radioactivity bound to dried phosphocellulose squares was measured in a liquid scintillation counter. IC50 values were calculated from triplicate determinations of each experimental point. Each inhibitor was tested at concentrations ranging from […] in the presence of fixed concentrations of peptide (2 mM) and ATP (50 μM).

For the molecule `O=C1NC(=O)c2ccccc2C1=Cc1ccnc2ccccc12` [4-(4'-quinolyl)methylenehomophthalimide, (E,Z) -4-(4'-quinolyl)-methylenehomophthalimide], the half-inhibitory concentration (IC50) turned out to be 15 µM. With `O=S1(=O)Nc2ccccc2C1=Cc1ccc(O)cc1` [(E,Z)-3-(4'-hydroxyphenyl)methylene-2,1-benzisothiazoline-2,2-dioxide], the IC50 stood at 17 µM. As for `O=C1NC(=O)c2ccccc2C1=Cc1ccc(O)cc1` [(E,Z)-4-(4'-hydroxyphenyl)methylenehomophthalimide], the figure is 5 µM; as for `O=S1(=O)Nc2ccccc2C1=Cc1c[nH]c2ccccc12` [(E,Z)-3-(3'-indolyl)methylene-2,1-benzisothiazoline-2,2-dioxide], 113 µM.

For orientation: IC50 means the concentration at which inhibition is half-maximal.
